According to US9163003B2, “4-piperidinyl compounds for use as tankyrase inhibitors” (NOVARTIS AG, priority 2011, dated 2015):
Where two headings read alike, the source gives them in different places.

How the values were obtained:
[1] = test system: Non-small lung cancer ABC-1 cells; experiment: Cellular proliferation assay, ABC-1 cells (CellTiter-Glo); type: cell-based; settings: 3 days of compound treatment
Protocol: Non-small lung cancer ABC-1 cells were plated at 5000 cells per well in 96-well plates and treated with 8 serial compound dilutions starting from 10 μM as the highest concentration. Viable cells were measured after 3 days of compound treatment using the CellTiter-Glo assay (Promega, G7570). Assay was performed following the manufacture protocol.

[2] = test system: Axin2 protein; experiment: Cellular ELISA assay for stabilizing the Axin2 protein in SW480 cells; type: cell-based; settings: 24 hrs treatment, read-out: Axin AC50
Protocol: Compound activity in stabilizing the Axin2 protein was measured by Sandwich Enzyme-Linked Immuosorbent (ELISA) assay in the colorectal cell line SW480. 30,000 SW480 cells were seeded per well in 96-well plate and incubated overnight prior to compound treatment. Cells were then treated with compounds in 6-point dilution starting at 10 μM for 24 hrs. Cells were then washed with 100 μL of cold Phosphate Buffer Saline (PBS), and lysed in 125 μl of cold 1× lysis buffer (Cell Signaling Technology, 9803) supplemented with Protease inhibitor (Roche, 11836170) and Phosphatase inhibitors (Sigma, P2850, P5726). For the ELISA assay, anti Axin-2 capture antibody (Strategic Diagnostics) antibody was diluted to a concentration of 1 μg/ml (1:1000) in Carbonate Coating buffer, pH 9.2 (Sigma, C3041-50CAP). 100μ of the diluted anti Axin-2 capture antibody per well was then used to coat the 96-well ELISA plate (Thermo Electron Corp., MicroLite 1 flat bottom plate #7571) overnight at 4° C. Plates were then washed three times with 300 μl/well of wash solution, PBST20 (PBS+0.05% Tween), and blocked with 300 μl/well 1% BSA/PBS (BSA, Millipore Probumin #82-045-1) for 1.5 hours at room temperature while shaking gently. After blocking, plates were then washed three times with 300 μl/well of wash solution. 100 μL of prepared SW480 cell lysate was then added to each well and incubated at room temperature for 2 hours while shaking gently. After washing, 100 μL of Biotinylated anti-Axin2 antibody (CST, 2151) was added to each well and incubated room temperature for 2 hours. 100 μL of Streptavidin-HRP (R&D systems, DY998) diluted 1:200 in 1% BSA/PBS was then added in each well and incubate for 30 mins at R/T in the dark. Signal was detected by Chemiluminescence (Pierce SuperSignal ELISA Femto #3704), and measured on PerkinElmer Wallac 1420 plate reader.

[3] = test system: Wnt ligand-induced signaling; experiment: Wnt-responsive Super-TOpFlash (STF) luciferase reporter gene assay in HEK293 cells; type: cell-based; settings: Homo sapiens, Wnt3A condition medium induced
Protocol: Compound activity in inhibiting Wnt ligand-induced signaling was measured using a Wnt-responsive Super-TOpFlash (STF) luciferase reporter gene assay in HEK293 cells. On day 1 of the assay, cells were plated at a density of 8000 cells per well of 384-well plate in 25 μl medium containing 5% fetal bovine serum (FBS). On the second day, […] condition medium (CM) produced from mouse L cells was added to the cells to induce Wnt signaling, followed by addition of 5 μL of compounds each well in 10-point serial dilution. On the third day, the luciferase activity was measured by the Bright-Glo™ Luciferase Assay System following manufacture's protocol (Promega, E2620). The Inhibition was calculated as: (Maximum Wnt-induced signaling−Sample)/(Maximum Wnt-induced signaling−Background)*100. “Maximum Wnt-induced signaling” is the STF signal level induced by 20% Wnt3A CM without compound; and “Background” is the STF signal level without the addition of Wnt3A CM or compound.

[4] = biological target: Human PARP1 (Homo sapiens (Human), UniProt P09874); experiment: PARP1 autoparsylation biochemical assay, LC/MS detection of nicotinamide; settings: read-out: PARP1 IC50, 20 nM enzyme, 250 μM NAD+, 60 min room temperature
[5] = biological target: PARP2 (Mus musculus (Mouse), UniProt O88554); experiment: PARP2 autoparsylation biochemical assay, LC/MS detection of nicotinamide; settings: read-out: PARP2 Ic50, 20 nM enzyme, 250 μM NAD+, 60 min room temperature
[6] = biological target: human tankyrase 1 PARP catalytic domain, TNKS1P (GST-tagged) (Homo sapiens (Human), UniProt O95271); experiment: TNKS1 autoparsylation (AP) biochemical assay, LC/MS detection of nicotinamide; settings: 20 nM enzyme, 250 μM NAD+, 60 min room temperature
Protocol: The human tankyrase 1 PARP catalytic domain, TNKS1P, was cloned into a pDONR221 vector using the Invitrogen Gateway Technology. This entry clone was then subcloned into the destination vector pDEST20 to obtain the N-terminal Glutathione S-transferase (GST)-tagged fusion protein.
The autoparsylation activity of the TNKS 1/2 or PARP1/2 enzymes was measured by the liquid chromatography-mass spectrometry (LC/MS) detection of nicotinamide as readout. Compound activity in inhibiting the TNKS and PARP autoparsylation was evaluated by IC50 measurements.

[7] = biological target: tankyrase 2 protein PARP domain, TNKS2P (GST-tagged) (Homo sapiens (Human), UniProt Q9H2K2); experiment: TNKS2 autoparsylation (AP) biochemical assay, LC/MS detection of nicotinamide; settings: 20 nM enzyme, 250 μM NAD+, 60 min room temperature
Sequence of tankyrase 2 protein PARP domain, TNKS2P (GST-tagged) (Q9H2K2 959-1164): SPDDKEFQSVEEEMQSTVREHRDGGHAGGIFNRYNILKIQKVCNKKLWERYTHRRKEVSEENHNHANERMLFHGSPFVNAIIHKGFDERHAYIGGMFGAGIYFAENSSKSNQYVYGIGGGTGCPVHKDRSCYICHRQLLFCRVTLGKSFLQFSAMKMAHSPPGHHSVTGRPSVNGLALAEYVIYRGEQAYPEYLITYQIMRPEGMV

Sequence of Human PARP1 (P09874 whole entry): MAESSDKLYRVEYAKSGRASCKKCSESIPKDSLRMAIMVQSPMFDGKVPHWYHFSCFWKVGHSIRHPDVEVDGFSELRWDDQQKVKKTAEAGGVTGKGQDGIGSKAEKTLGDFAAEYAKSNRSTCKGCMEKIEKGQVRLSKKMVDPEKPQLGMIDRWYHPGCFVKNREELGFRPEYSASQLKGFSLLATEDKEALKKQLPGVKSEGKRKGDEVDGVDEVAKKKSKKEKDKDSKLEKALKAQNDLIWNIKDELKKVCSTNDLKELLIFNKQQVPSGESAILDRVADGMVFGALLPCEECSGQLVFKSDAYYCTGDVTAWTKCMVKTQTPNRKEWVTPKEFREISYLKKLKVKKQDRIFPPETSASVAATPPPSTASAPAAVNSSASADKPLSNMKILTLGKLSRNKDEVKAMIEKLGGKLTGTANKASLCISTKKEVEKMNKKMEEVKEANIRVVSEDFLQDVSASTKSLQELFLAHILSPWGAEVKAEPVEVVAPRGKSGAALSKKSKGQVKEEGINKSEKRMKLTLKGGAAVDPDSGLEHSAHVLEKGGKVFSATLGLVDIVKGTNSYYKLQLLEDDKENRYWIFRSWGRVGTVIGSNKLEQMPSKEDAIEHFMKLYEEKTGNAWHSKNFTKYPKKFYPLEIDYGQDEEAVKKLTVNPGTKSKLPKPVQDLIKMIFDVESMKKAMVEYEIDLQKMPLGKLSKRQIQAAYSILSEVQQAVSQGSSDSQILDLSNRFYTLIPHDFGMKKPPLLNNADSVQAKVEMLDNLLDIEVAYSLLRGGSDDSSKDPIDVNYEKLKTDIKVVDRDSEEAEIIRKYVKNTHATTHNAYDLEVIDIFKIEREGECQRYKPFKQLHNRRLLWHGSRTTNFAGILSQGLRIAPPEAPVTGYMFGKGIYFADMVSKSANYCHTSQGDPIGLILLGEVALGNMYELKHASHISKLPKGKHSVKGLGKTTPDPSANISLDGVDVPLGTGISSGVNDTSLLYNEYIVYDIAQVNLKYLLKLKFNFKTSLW
Sequence of human tankyrase 1 PARP catalytic domain, TNKS1P (GST-tagged) (O95271 1112-1317): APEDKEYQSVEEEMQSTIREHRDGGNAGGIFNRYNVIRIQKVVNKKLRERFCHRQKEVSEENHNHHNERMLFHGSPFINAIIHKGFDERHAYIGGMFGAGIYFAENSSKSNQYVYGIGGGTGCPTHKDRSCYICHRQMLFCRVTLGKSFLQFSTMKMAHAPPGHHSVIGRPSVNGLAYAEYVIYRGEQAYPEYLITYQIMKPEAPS
Sequence of PARP2 (O88554 whole entry, the tested form may be a part): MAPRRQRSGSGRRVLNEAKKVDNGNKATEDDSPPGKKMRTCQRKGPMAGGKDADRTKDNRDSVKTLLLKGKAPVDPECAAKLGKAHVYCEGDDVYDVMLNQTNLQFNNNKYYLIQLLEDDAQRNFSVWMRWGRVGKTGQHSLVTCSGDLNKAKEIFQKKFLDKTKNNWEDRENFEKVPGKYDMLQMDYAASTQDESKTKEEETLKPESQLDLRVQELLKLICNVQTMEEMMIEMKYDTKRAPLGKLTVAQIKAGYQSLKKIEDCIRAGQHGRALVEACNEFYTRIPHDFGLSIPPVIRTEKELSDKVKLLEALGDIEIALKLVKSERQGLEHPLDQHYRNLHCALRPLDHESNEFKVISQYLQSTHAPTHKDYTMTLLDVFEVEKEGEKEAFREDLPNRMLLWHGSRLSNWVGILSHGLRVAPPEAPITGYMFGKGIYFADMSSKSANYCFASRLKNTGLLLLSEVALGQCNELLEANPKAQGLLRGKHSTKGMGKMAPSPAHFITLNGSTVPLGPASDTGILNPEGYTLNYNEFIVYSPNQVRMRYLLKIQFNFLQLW

Row | SMILES | IC50 ([1]; Homo sapiens, 72 h) [nM] | AC50 ([2]; Homo sapiens) [nM] | IC50 [3] [nM] | IC50 [4] [nM] | IC50 [5] [nM] | IC50 [6] [nM] | IC50 [7] [nM] | IC50 [1] [nM] | AC50 [2] [nM]
1 | COc1ccc(C(=O)C2CCN(C3CCN(Cc4nc5c(c(=O)[nH]4)COCC5)C3=O)CC2)cc1 (stereo not shown) [Example 2, 2-{3-[4-(4-Methoxy-benzoyl)-piperidin-1-yl]-2-oxo-pyrrolidin-1-ylmethyl}-3,5,7,8-tetrahydro-pyrano[4,3-d]pyrimidin-4-one] | 30 ± 5 | 31.3 ± 3.6 | 1.3 ± 0.8 | 9300 ± 1800 | 5400 ± 400 | 33 ± 7 | 15 ± 4 | – | –
2 | COc1ccc(C(=O)C2CCN([C@@H]3CCN(CC(=O)Nc4nnc5n4CCS5)C3=O)CC2)cc1 (single isomer, unassigned) [Example 34] | – | – | – | > 19000 | 6300 ± 700 | 38 ± 1 | – | 49 | 78 ± 6
3 | COc1ccc(C(=O)C2CCN([C@H]3CCN(Cc4nc5c(c(=O)[nH]4)COCC5)C3=O)CC2)cc1 [Example 3, 2-{(S)-3-[4-(4-Methoxy-benzoyl)-piperidin-1-yl]-2-oxo-pyrrolidin-1-ylmethyl}-3,5,7,8-tetrahydro-pyrano[4,3-d]pyrimidin-4-one] | 12 ± 3 | 6.3 ± 1.3 | 1.1 ± 0.4 | 21000 ± 8700 | 4800 ± 600 | 12.8 ± 2.6 | 9.5 ± 0.7 | – | –
4 | COc1ccc(C(=O)C2CCN(C3CCN(CC(=O)Nc4nnc5n4CCS5)C3=O)CC2)cc1 (stereo not shown) [Example 32, N-(5,6-dihydrothiazolo[2,3-c][1,2,4]triazol-3-yl)-2-(3-(4-(4-methoxybenzoyl)piperidin-1-yl)-2-oxopyrrolidin-1-yl)acetamide] | 76 | 131 ± 8 | – | > 19000 | 5090 ± 120 | 43 ± 1 | – | – | –
5 | COc1ccc(C(=O)C2CCN([C@H]3CCN(Cc4nc5c(c(=O)[nH]4)COCC5)C3=O)CC2)cc1C [Example 13, 2-{(S)-3-[4-(4-Methoxy-3-methyl-benzoyl)-piperidin-1-yl]-2-oxo-pyrrolidin-1-ylmethyl}-3,5,7,8-tetrahydro-pyrano[4,3-d]pyrimidin-4-one] | 3 | 2.1 ± 0.1 | 1.2 ± 1 | 24000 ± 3000 | 4000 ± 1100 | 6 ± 1 | 3 ± 1 | – | –
6 | COc1ccc(C(=O)C2CCN(C3CCN(Cc4nc5c(cnn5C)c(=O)[nH]4)C3=O)CC2)cc1 (stereo not shown) [Example 6, 6-{3-[4-(4-Methoxy-benzoyl)-piperidin-1-yl]-2-oxo-pyrrolidin-1-ylmethyl}-1-methyl-1,3a,5,7a-tetrahydro-pyrazolo[3,4-d]pyrimidin-4-one] | 43 | 23 ± 3 | 5.9 ± 1.5 | > 19000 | > 19000 | 22 ± 4 | 25 ± 4 | – | –
7 | O=C(c1ccc(Cl)cc1)C1CCN(C2CCN(Cc3nc4c(c(=O)[nH]3)COCC4)C2=O)CC1 (stereo not shown) [Example 9, 2-{3-[4-(4-Chloro-benzoyl)-piperidin-1-yl]-2-oxo-pyrrolidin-1-ylmethyl}-3,5,7,8-tetrahydro-pyrano[4,3-d]pyrimidin-4-one] | 60 | 52 ± 4 | 3 ± 3 | 16600 ± 4200 | 4620 ± 950 | 30 ± 2 | 23 ± 1 | – | –
8 | O=C(c1ccc(F)cc1)C1CCN([C@H]2CCN(Cc3nc4c(c(=O)[nH]3)COCC4)C2=O)CC1 [Example 11, 2-{(S)-3-[4-(4-Fluoro-benzoyl)-piperidin-1-yl]-2-oxo-pyrrolidin-1-ylmethyl}-3,5,7,8-tetrahydro-pyrano[4,3-d]pyrimidin-4-one] | 301 | 132 ± 22 | 5 ± 5 | 37400 ± 300 | 10200 ± 4200 | 37 ± 5 | 17 ± 2 | – | –
9 | COc1ccc(C(=O)C2CCN(C3CCN(Cc4ncc(C)c(=O)[nH]4)C3=O)CC2)cc1 (stereo not shown) [Example 25, 2-{3-[4-(4-Methoxy-benzoyl)-piperidin-1-yl]-2-oxo-pyrrolidin-1-ylmethyl}-5-methyl-3H-pyrimidin-4-one] | 117 | 46 ± 3 | 3.4 ± 1.5 | > 19000 | > 19000 | 72 ± 2 | 36 ± 6 | – | –
10 | COc1ccc(C(=O)C2CCN(C3CCN(Cc4nc(C)c(C)c(=O)[nH]4)C3=O)CC2)cc1 (stereo not shown) [Example 26, 2-{3-[4-(4-Methoxy-benzoyl)-piperidin-1-yl]-2-oxo-pyrrolidin-1-ylmethyl}-5,6-dimethyl-3H-pyrimidin-4-one] | 43 | 21 ± 3 | 4.1 ± 2.1 | > 19000 | > 19000 | 47 ± 2 | 26 ± 1 | – | –
11 | COc1ccc(C(=O)C2CCN([C@H]3CCN(Cc4nc5ccccc(=O)c5[nH]4)C3=O)CC2)cc1C [Example 28, 2-{(S)-3-[4-(4-Methoxy-3-methyl-benzoyl)-piperidin-1-yl]-2-oxo-pyrrolidin-1-ylmethyl}-3H-cycloheptaimidazol-4-one] | 0.8 ± 0.9 | 0.46 ± 0.2 | 1.5 ± 0.5 | 20200 ± 1500 | 2900 ± 300 | 19.5 ± 3.5 | 7 ± 1 | – | –
12 | COc1ccc(C(=O)C2CCN([C@@H]3CCN(Cc4nc5ccccc(=O)c5[nH]4)C3=O)CC2)cc1 [Example 31, 2-{(R)-3-[4-(4-Methoxy-benzoyl)-piperidin-1-yl]-2-oxo-pyrrolidin-1-ylmethyl}-3H-cycloheptaimidazol-4-one] | 85 | 89 ± 2 | 65 ± 14 | – | 10100 ± 2600 | 1080 ± 10 | – | – | –
13 | O=C(c1ccc(F)cc1)C1CCN(C2CCN(Cc3nc4c(c(=O)[nH]3)COCC4)C2=O)CC1 (stereo not shown) [Example 10, 2-{3-[4-(4-Fluoro-benzoyl)-piperidin-1-yl]-2-oxo-pyrrolidin-1-ylmethyl}-3,5,7,8-tetrahydro-pyrano[4,3-d]pyrimidin-4-one] | 291 | 257 ± 67 | 10 ± 1 | 23600 ± 2700 | 9200 ± 2200 | 27 ± 1 | 6 ± 1 | – | –
14 | CCc1cc(=O)[nH]c(CN2CCC(N3CCC(C(=O)c4ccc(OC)cc4)CC3)C2=O)n1 (stereo not shown) [Example 24, 6-Ethyl-2-{3-[4-(4-methoxy-benzoyl)-piperidin-1-yl]-2-oxo-pyrrolidin-1-ylmethyl}-3H-pyrimidin-4-one] | 183 | 104 ± 15 | 10.4 ± 2.3 | > 19000 | > 19000 | 115 ± 4 | 53 ± 5 | – | –
15 | COc1ccc(C(=O)C2CCN(C3CCN(Cc4nc(C)cc(=O)[nH]4)C3=O)CC2)cc1 (stereo not shown) [Example 23, 2-{3-[4-(4-Methoxy-benzoyl)-piperidin-1-yl]-2-oxo-pyrrolidin-1-ylmethyl}-6-methyl-3H-pyrimidin-4-one] | 489 | 227 ± 25 | 56 ± 33 | – | – | 286 ± 5 | 137 ± 22 | – | –
